In patent US8735620B2, “Processes for preparing (E)-styrylbenzylsulfone compounds and uses thereof for treating proliferative disorders” (priority 2008, dated 2014):
Read-outs that look alike come from different tables or passages of the source.

Legend:
Type in all cases: cell-based
[1] = tested on: H157 (human lung tumor cell line); experiment: Cytotoxicity assay (trypan blue exclusion, 96 h), H157; settings: H157, 96 h treatment; read-out: H157 IC50
From the text: (§1) Tissue Culture and Reagents: Paclitaxel was purchased from Sigma. Cell lines were purchased from ATCC. Cell lines were routinely grown in DMEM or RPM1 (CellGro) supplemented with 10% fetal bovine serum (Atlas) and 1 unit/mL penicillin-streptomycin (Gibco).

[2] = tested on: DU145 (human prostate tumor cell line); experiment: Cytotoxicity assay (trypan blue exclusion, 96 h), DU145; settings: DU145, 96 h treatment; read-out: DU145 IC50
From the text: as §1

[3] = tested on: DLD1 (human colorectal tumor cell line); experiment: Cytotoxicity assay (trypan blue exclusion, 96 h), DLD1; settings: DLD1, 96 h treatment; read-out: DLD1 IC50
From the text: as §1

[4] = tested on: BT20 (human breast tumor cell line); experiment: Cytotoxicity assay (trypan blue exclusion, 96 h), BT20; settings: BT20, 96 h treatment
From the text: as §1

[5] = tested on: BT20, DU145, H157 and DLD1 cell lines; experiment: In vitro cytotoxicity, four human tumor cell lines (SAR discussion); settings: for activity in cell-killing assays: at the highest concentration (20 μM) tested
Protocol: A number of tumor cell lines were tested using a dose response end point assay system. The cells were grown in either DMEM or RPMI supplemented with 10% fetal bovine serum and 1 unit/mL Penicillin-Streptomycin solution. The tumor cells were plated into 6 well dishes at a cell density of 1.0×10^5 cells/mL/well and compounds were added 24 h later at various concentrations. Cell counts were determined from duplicate wells after 96 h of treatment. The total number of viable cells was determined by trypan blue exclusion.
Following the synthesis of this group of compounds, their in vitro cytotoxicity was assessed using four different human tumor cell lines derived from human breast (BT20), prostate (DU145), lung (H157) and colorectal (DLD1) cancers. […] In a majority of the compounds described here, a methoxy group was kept constant at the 4th position on the aromatic ring of the benzyl moiety.

COc1ccc(/C=C/S(=O)(=O)Cc2ccc(OC)cc2)cc1 [6a, (E)-4-Methoxystyryl-4-Methoxybenzyl sulfone] was tested, and the IC50 [1] was > 20 µM, the IC50 [2] was > 20 µM and the IC50 [3] was > 20 µM. The IC50 [4] was > 20 µM and the “cytotoxic activity, SAR statement” value [5] was “gradually decreased the activity”.
COc1cc(OC)c(/C=C/S(=O)(=O)Cc2cc(OC)c(OC)c(OC)c2)c(OC)c1 [6ac, (E)-2,4,6-trimethoxystyryl-3,4,5-Trimethoxybenzyl sulfone] was tested, and the IC50 [1] was > 20 µM, the IC50 [2] was > 20 µM and the IC50 [3] was > 20 µM. The IC50 [4] was > 20 µM.
In the case of COc1cc(OC)c(/C=C/S(=O)(=O)Cc2ccc(OC)c(OC)c2OC)c(OC)c1 [6ad, (E)-2,4,6-Trimethoxystyryl-2,3,4-Trimethoxybenzyl sulfone], the IC50 [2] is reported as 12.5 µM.
With COc1cc(OC)c(/C=C/S(=O)(=O)Cc2ccc(Cl)cc2)c(OC)c1 [6ae, (E)-2,4,6-trimethoxystyryl-4-chlorobenzyl sulfone] the IC50 [2] was 7.5 µM, the IC50 [4] was 10 µM and the “cytotoxic activity, SAR statement” value [5] was “substantially lost activity”.
COc1cc(OC)c(/C=C/S(=O)(=O)Cc2ccc([N+](=O)[O-])cc2)c(OC)c1 [6af, (E)-2,4,6-trimethoxystyryl-4-Nitrobenzyl sulfone] was tested, and the “cytotoxic activity, SAR statement” value ([5]; four human tumor cell lines) was “substantially lost activity”.
With COc1cc(OC)c(/C=C/S(=O)(=O)Cc2ccc(C#N)cc2)c(OC)c1 [6ag, (E)-2,4,6-trimethoxystyryl-4-Cyanobenzyl sulfone] the IC50 [2] was 7.5 µM, the IC50 [4] was 12.5 µM and the “cytotoxic activity, SAR statement” value [5] was “substantially lost activity”.
With COc1cc(OC)c(/C=C/S(=O)(=O)Cc2ccc(C(=O)O)cc2)c(OC)c1 [6ah, (E)-2,4,6-trimethoxystyryl-4-Carboxybenzyl sulfone] the IC50 [1] was 17.5 µM, the IC50 [2] was 10 µM and the “cytotoxic activity, SAR statement” value ([5]; four human tumor cell lines) was “substantially lost activity”.
In the case of COc1cc(OC)c(/C=C/S(=O)(=O)Cc2ccc(O)cc2)c(OC)c1 [6ai, (E)-2,4,6-trimethoxystyryl-4-Hydroxybenzyl sulfone], the IC50 [2] is reported as 7.5 µM and the “cytotoxic activity, SAR statement” value ([5]; four human tumor cell lines) is reported as “substantially lost activity”.
COc1ccc(CS(=O)(=O)/C=C/c2ccc(F)cc2)cc1 [6b, (E)-4-Fluorostyryl-4-Methoxybenzyl sulfone] gave an IC50 [1] of 2.5 µM, an IC50 [2] of 1.25 µM and an IC50 [3] of 2 µM. The IC50 [4] was 1.5 µM and the “cytotoxic activity, SAR statement” value [5] was “moderate cytotoxic activity”.
Molecule COc1ccc(CS(=O)(=O)/C=C/c2ccc(Cl)cc2)cc1 [6c, (E)-4-Chlorostyryl-4-Methoxybenzyl sulfone] has an IC50 [1] of 3.5 µM, an IC50 [2] of 2.5 µM and an IC50 [3] of 3 µM. The IC50 [4] was 2 µM and the “cytotoxic activity, SAR statement” value [5] was “gradually decreased the activity”.
COc1ccc(CS(=O)(=O)/C=C/c2ccc([N+](=O)[O-])cc2)cc1 [6d, (E)-4-Nitrostyryl-4-Methoxybenzyl sulfone] was tested, and the IC50 [1] was 7.5 µM, the IC50 [2] was 7.5 µM and the IC50 [3] was 5 µM. The IC50 [4] was 5 µM and the “cytotoxic activity, SAR statement” value ([5]; four human tumor cell lines) was “gradually decreased the activity”.
In the case of COc1ccc(CS(=O)(=O)/C=C/c2ccc(N)cc2)cc1 [6e, (E)-4-Aminostyryl-4-Methoxybenzyl sulfone], the IC50 [1] is reported as > 20 µM, the IC50 [2] is reported as > 20 µM and the IC50 [3] is reported as > 20 µM. For the same molecule, the IC50 [4] was > 20 µM and the “cytotoxic activity, SAR statement” value [5] was “gradually decreased the activity”.
COc1ccc(CS(=O)(=O)/C=C/c2ccccc2OC)cc1 [6f, (E)-2-Methoxystyryl-4-Methoxybenzyl sulfone] gave an IC50 [1] of 5 µM, an IC50 [2] of 3.5 µM and an IC50 [3] of 7.5 µM. For the same molecule, the IC50 [4] was 5 µM and the “cytotoxic activity, SAR statement” value ([5]; four human tumor cell lines) was “partially recovered the lost activity”.
Work on COc1ccc(CS(=O)(=O)/C=C/c2ccc(F)cc2Cl)cc1 [6g, (E)-2-Chloro-4-fluorostyryl-4-Methoxybenzyl sulfone] yielded an IC50 [1] of 2.5 µM, an IC50 [2] of 2 µM and an IC50 [3] of 4 µM. For the same molecule, the IC50 [4] was 2.5 µM and the “cytotoxic activity, SAR statement” value [5] was “retained cytotoxic activity”.
COc1ccc(CS(=O)(=O)/C=C/c2ccc(C)cc2C)cc1 [6h, (E)-2,4-Dimethylstyryl-4-Methoxybenzyl sulfone] was tested, and the IC50 [2] was 12 µM and the “cytotoxic activity, SAR statement” value [5] was “low level of cytotoxicity”.
COc1ccc(CS(=O)(=O)/C=C/c2ccc(F)c(OC)c2)cc1 [6i, (E)-4-Fluoro-3-methoxystyryl-4-Methoxybenzylsulfone] was tested, and the IC50 [2] was 10 µM and the “cytotoxic activity, SAR statement” value ([5]; four human tumor cell lines) was “loss of activity”.
COc1ccc(CS(=O)(=O)/C=C/c2ccc(OC)c(OC)c2)cc1 [6j, (E)-3,4-Dimethoxystyryl-4-Methoxybenzyl sulfone] was tested, and the IC50 [1] was > 20 µM, the IC50 [2] was > 20 µM and the IC50 [3] was > 20 µM. For the same molecule, the IC50 [4] was > 20 µM.
In the case of COc1ccc(CS(=O)(=O)/C=C/c2cc(C)cc(C)c2)cc1 [6k, (E)-3,5-Dimethylstyryl-4-Methoxybenzyl sulfone], the IC50 [1] is reported as > 20 µM, the IC50 [2] is reported as > 20 µM and the IC50 [3] is reported as > 20 µM. For the same molecule, the IC50 [4] was > 20 µM and the “cytotoxic activity, SAR statement” value [5] was “low level of cytotoxicity”.
In the case of COc1ccc(CS(=O)(=O)/C=C/c2c(C)cccc2C)cc1 [6l, (E)-2,6-Dimethylstyryl-4-Methoxybenzyl sulfone], the IC50 [1] is reported as > 20 µM, the IC50 [2] is reported as > 20 µM and the IC50 [3] is reported as > 20 µM. The IC50 [4] was > 20 µM and the “cytotoxic activity, SAR statement” value [5] was “low level of cytotoxicity”.
For COc1ccc(CS(=O)(=O)/C=C/c2c(OC)cccc2OC)cc1 [6m, (E)-2,6-Dimethoxystyryl-4-Methoxybenzyl sulfone], the IC50 [1] was 0.7 µM, the IC50 [2] was 0.25 µM and the IC50 [3] was 0.7 µM. For the same molecule, the IC50 [4] was 0.4 µM and the “fold enhancement of activity compared to other disubstituted methoxy sulfones (6j, 6n, 6o and 6p)” value ([5]; cytotoxicity assays) was “greater than 40 fold”.
In the case of COc1ccc(CS(=O)(=O)/C=C/c2ccc(OC)cc2OC)cc1 [6n, (E)-2,4-Dimethoxystyryl-4-Methoxybenzyl sulfone], the IC50 [1] is reported as > 20 µM, the IC50 [2] is reported as > 20 µM and the IC50 [3] is reported as > 20 µM. The IC50 [4] was > 20 µM.
COc1ccc(CS(=O)(=O)/C=C/c2cc(OC)ccc2OC)cc1 [6o, (E)-2,5-Dimethoxystyryl-4-Methoxybenzyl sulfone] was tested, and the IC50 [1] was > 20 µM, the IC50 [2] was > 20 µM and the IC50 [3] was > 20 µM. For the same molecule, the IC50 [4] was > 20 µM.
COc1ccc(CS(=O)(=O)/C=C/c2cc(OC)cc(OC)c2)cc1 [6p, (E)-3,5-Dimethoxystyryl-4-Methoxybenzyl sulfone] was tested, and the IC50 [1] was > 20 µM, the IC50 [2] was > 20 µM and the IC50 [3] was > 20 µM. For the same molecule, the IC50 [4] was > 20 µM.
For COc1ccc(CS(=O)(=O)/C=C/c2cc(OC)c(OC)cc2OC)cc1 [6q, (E)-2,4,5-Trimethoxystyryl-4-Methoxybenzyl sulfone], the IC50 [1] was > 20 µM, the IC50 [2] was > 20 µM and the IC50 [3] was > 20 µM. For the same molecule, the IC50 [4] was > 20 µM and the “activity in cell-killing assays” value [5] was “totally inactive”.
For COc1ccc(CS(=O)(=O)/C=C/c2ccc(OC)c(OC)c2OC)cc1 [6r, (E)-2,3,4-Trimethoxystyryl-4-Methoxybenzyl sulfone], the IC50 [1] was > 20 µM, the IC50 [2] was > 20 µM and the IC50 [3] was > 20 µM. The IC50 [4] was > 20 µM and the “activity in cell-killing assays” value [5] was “totally inactive”.
In the case of COc1ccc(CS(=O)(=O)/C=C/c2cc(OC)c(OC)c(OC)c2)cc1 [6t, (E)-3,4,5-Trimethoxystyryl-4-Methoxybenzyl sulfone], the IC50 [1] is reported as > 20 µM, the IC50 [2] is reported as > 20 µM and the IC50 [3] is reported as > 20 µM. The IC50 [4] was > 20 µM and the “activity in cell-killing assays” value [5] was “totally inactive”.
For COc1ccc(CS(=O)(=O)/C=C/c2c(OC)cc(O)cc2OC)cc1 [6u, (E)-2,6-Dimethoxy-4-hydroxystyryl-4-Methoxybenzyl sulfone], the IC50 [1] was > 20 µM, the IC50 [2] was > 20 µM and the IC50 [3] was > 20 µM. For the same molecule, the IC50 [4] was > 20 µM and the “cytotoxic activity, SAR statement” value ([5]; four human tumor cell lines) was “either a reduced level or total loss of activity”.
With COc1ccc(CS(=O)(=O)/C=C/c2c(OC)cc(F)cc2OC)cc1 [6v, (E)-2,6-Dimethoxy-4-fluorostyryl-4-Methoxybenzyl sulfone] the IC50 [1] was 0.5 µM, the IC50 [2] was 0.5 µM and the IC50 [3] was 0.75 µM. The IC50 [4] was 0.75 µM and the “cytotoxic activity, SAR statement” value [5] was “either a reduced level or total loss of activity”.
COc1ccc(CS(=O)(=O)/C=C/c2c(C)cc(C)cc2C)cc1 [6w, (E)-2,4,6-Trimethylstyryl-4-Methoxybenzyl sulfone] was tested, and the IC50 [1] was > 20 µM, the IC50 [2] was > 20 µM and the IC50 [3] was > 20 µM. The IC50 [4] was > 20 µM and the “cytotoxic activity, SAR statement” value [5] was “inactive”.
In the case of COc1cc(OC)c(/C=C/S(=O)(=O)Cc2ccc(OC(F)(F)F)cc2)c(OC)c1 [6x, (E)-2,4,6-Trimethoxystyryl-4-Trifluoromethoxybenzyl sulfone], the IC50 [1] is reported as 6 µM, the IC50 [2] is reported as 4 µM and the IC50 [3] is reported as 4 µM. For the same molecule, the IC50 [4] was 3 µM.
Molecule COc1ccc(CS(=O)(=O)/C=C/c2cc(OC)c(OC)c(OC)c2)cc1O [6y, (E)-3,4,5-Trimethoxystyryl-3-Hydroxy-4-Methoxybenzyl Sulfone] has an IC50 [1] of 10 µM, an IC50 [2] of 5 µM and an IC50 [3] of 10 µM. The IC50 [4] was 7.5 µM.
In the case of COc1ccc(CS(=O)(=O)/C=C/c2c(OC)cc(O)cc2OC)cc1O [6z, (E)-2,6-Dimethoxy-4-hydroxystyryl-3-Hydroxy-4-Methoxybenzyl Sulfone], the IC50 [1] is reported as 0.5 µM, the IC50 [2] is reported as 0.5 µM and the IC50 [3] is reported as 0.5 µM. The IC50 [4] was 0.25 µM.
